From a melting point compilation (Tetko et al.; mined from patent text by program, amines drawn as free bases though some values may be those of a salt)

Compound | melting point [°C]
CCN(CC)CCNc1cc(Cl)c(N)c(CCN(CC)CC)c1[N+](=O)[O-] | 90
CC(c1ccccc1)n1cncc1C#N (single isomer, unassigned; (+)) | 97 to 99
COc1ccc(C(=O)Nc2ccccc2)cc1NCc1ccc(OC)c(OC)c1 | 187 to 188
C=CCOc1ccc(C)c2c1C(=O)CC2 | 89 to 92
O=S(=O)(CCc1ccc(Cl)cc1)CCc1ccc(Cl)cc1 | 42 to 43
Clc1ccc(COc2ccc(-c3nc(COc4ccc(CCCn5ccnc5)cc4)co3)cc2)cc1 | 151 to 152
CNc1nc(-c2cccc(NC(=O)c3cccc(Cl)c3)c2)c2cc(OC)c(OC)cc2n1 | 124 to 126
CC(=O)Nc1cc(C)nn1C(C)(C)C | 118 to 120
CC(C)c1ccc(OC(Cc2ccc(OCCNC(=O)c3ccc(-c4ccccc4)cc3)cc2)C(=O)O)cc1 (stereo unspecified) | 172 to 173
C(=C\c1cc(/C=C/c2ccc3[nH]ccc3c2)n[nH]1)/c1ccc(OCc2ccccn2)cc1 | 95 to 102
CCCCCCCCCCCCCCCCCCOc1cc(C(N)=O)cc(N(CC(=O)OCc2ccccc2)CC(=O)OCc2ccccc2)c1 | 112 to 114
COc1nc(C)nc(NC(=O)NS(=O)(=O)c2ccccc2C(=O)OCCCl)n1 | 167 to 170
C#CCN(C(=O)C1CC1)c1cccc(-c2ccnc3c(C(=O)c4cccs4)cnn23)c1 | 221 to 223
C=Cc1cc(O)cc2nc(-c3ccc(OP(=O)(OCC)OCC)c(F)c3)oc12 | 134 to 136
NCCCOc1cccc2[nH]c3ccccc3c12 | 146 to 147
COC(=O)C[C@@H](CI)O[Si](c1ccccc1)(c1ccccc1)C(C)(C)C | 84 to 88
COc1ccc(COC(=O)[C@@H]2C[C@@H](O)CN2C(=O)OCc2ccc([N+](=O)[O-])cc2)cc1 | 83 to 85
CCCCCCCCCCCC1Nc2ccccc2-c2c([N+](=O)[O-])cnn21 (stereo unspecified) | 92 to 93
O=C1NCCN1CCN1CC=C(c2cn(-c3ccc(F)cc3)c3ccc(C(F)(F)F)cc23)CC1 | 200
COc1ccc(-c2cc(-c3ccccc3)[nH]c2C(=O)NCc2ccc(C(=O)NCCS)cc2)cc1 | 131 to 132
CN(C)c1c(F)c(F)c(F)c(F)c1C(=O)O | 90 to 100

Compound | melting point [°C]
CCc1noc(-c2cn(-c3ncc(OC(C)C)cn3)cn2)n1 | 156 to 157
CCCCc1nc(C(=O)O)c(C(=O)O)[nH]1 | 261 to 263
O=C(CCl)N1CC(c2ccc(Cl)cc2)Sc2ccccc21 (stereo unspecified) | 94 to 95
COc1cc(OC)cc(N2CCN(C(=S)Nc3nc4ccccc4nc3OC)CC2)c1 | 141 to 143
FC(F)(F)c1cc(Br)c2nc(N3CCN(c4ncc(Cl)cc4Cl)CC3)[nH]c2c1 | 176 to 179
CCCCCCCc1ccc(-c2cnc([C@H]3CC[C@H](C#N)CC3)nc2)cc1 | 83.5
O=C(NCc1ccccc1)Nc1ccc(Cl)cc1 | 206 to 208
CN(C)C=CC(=O)c1ccsc1 | 89 to 90
C=Cc1cc(C(C)(C)C)c(O)c(C(C)(C)C)c1 | 36 to 39
CC1Nc2ccc(-c3ccc(F)c(Cl)c3)cc2C(C)(C)O1 (stereo unspecified) | 173 to 175
CC(Cl)C(=O)NCCO (stereo unspecified) | 64
NS(=O)(=O)NC(c1ccccc1)P(=O)(Oc1ccccc1)Oc1ccccc1 (stereo unspecified) | 171 to 174
COc1ccc(C(=O)C2=C(C)C(=O)C3C=CC=CC3C2=O)cc1 (stereo unspecified) | 150 to 151
CCCc1nc2c(N)nc3ccc(-c4ccccc4CO)cc3c2s1 | 194 to 196
COc1cc2c(cc1OC)C(c1cccc([N+](=O)[O-])c1)=NN=C(C)C2 | 196 to 198
CSc1cccc(NCC2CN(C(=O)Oc3ccccc3)CCO2)c1 (stereo unspecified) | 114 to 115
CCN(Cc1cc(Br)ccc1OCC1CC1)c1ccc(C(=O)O)cn1 | 175 to 177
CCCCCC1CCC(c2ccc(-c3ccc(Br)cc3C(F)(F)F)cc2)CC1 (stereo unspecified) | 51 to 52
Cc1ccn2ncc(C(=O)NC3CN4CCC3CC4)c2c1 (stereo unspecified) | 100 to 102
CCCCCCCCCCCCCCCCn1c(C2=CC(=O)c3ccccc3C2=O)ccc1C1=CC(=O)c2ccccc2C1=O | 40 to 43
CCOC(=O)c1ncn2c1CN(C)C(=O)c1cnccc1-2 | 205 to 206

Compound | melting point [°C]
CC1(C)OC(C=Cc2cccs2)=CC1=O | 75 to 77
CC(C)(C)CNS(=O)(=O)c1cccc([N+](=O)[O-])c1 | 99
COc1ncccc1NC(=O)[C@H]1[C@H](c2ccccc2)C1(C)C (relative stereo) | 152 to 154
COc1ccc2[nH]c(C(=O)N3CCc4cc(C(=O)NO)ccc4C3)cc2c1 | 156
Oc1c(Cc2c[nH]cn2)cccc1C1=NCCN1 | 261
COC(=O)[C@@H]1C[C@@H](OS(C)(=O)=O)CN1C(=O)C1(C)CC1 | 102 to 103
CC1=CC(=Cc2cc(C)cc(C3(C)CCCCC3)c2OCc2ccccc2)C(O)C(C2(C)CCCCC2)=C1 (stereo unspecified) | 97 to 99
CC(=O)Nc1ccc(S(=O)(=O)c2cccc(Cl)c2)cc1 | 149 to 150
O=C(O)c1ccc2c([N+](=O)[O-])cc3c(c2c1)C(CCl)CN3 (stereo unspecified) | 205 to 208
COc1ccc(COc2cccc(C=O)c2OCc2ccc(OC)cc2)cc1 | 92 to 93
COc1ccccc1-c1ccc2cnc(Nc3cccc(C4CCN(C)CC4)c3OC)nn12 | 74 to 89
COc1ccc2c(cccc2[C@H]2CO[C@H](CCCNC(=O)OCC(N)=O)OC2)c1 | 148 to 150
COc1cc(CCCO)cc2c(O)c(C(=O)NCc3ccc(Cl)cc3)cnc12 | 201 to 204
CCCCOc1ccc(C#CC2(O)CN3CCC2CC3)cc1 (single isomer, unassigned; (+)) | 115 to 116
CC(C)(C)OC(=O)n1ncc2ccc(NC(=O)c3ccccc3O)cc21 | 155 to 156
CC(C)(CO)c1cc(NC(=O)C(C)(C)S(=O)(=O)C2CCOCC2)on1 | 191 to 192
CCCCCN(CCC12CC3CC(CC(C3)C1)C2)C(=O)NCCc1cccnc1 | 112 to 114
O=C(O)COc1cc2cc(C3CCCC3)sc2c(Cl)c1Cl | 173 to 174
CCCc1c(O)c(C(C)=O)cc(C(C)=O)c1NCC | 114 to 115
COc1ccc(C2SCCCS2)cc1OC | 99 to 101
COc1cc2c(c(Cl)c1Cl)C(=O)C(C)(c1ccc(F)cc1)C2 (stereo unspecified) | 163 to 170

Next, values leading:

melting point [°C] | Compound
206 | CCC(=O)OCC(OC(=O)CC)c1nc2c(C(F)(F)F)cccc2c(O)c1C(=O)Nc1nccs1 (stereo unspecified)
115 to 117 | CCCN(CCC)C(=O)CNc1nc(-c2ccccc2)nc(C(F)(F)F)c1Cl
157 to 158 | CC=CC(=O)NCCc1ccc(S(=O)(=O)N2CCN(C3CCCCC3)C2=N)cc1
> 250 | Nc1nc(=Nc2ccccc2)n2c(n1)sc1ccccc12
> 250 | O=C1N=NC(=O)c2c1[nH]c1cc(I)ccc21
176 | CC(CN1CCN(C(c2ccc(F)cc2)c2ccc(F)cc2)CC1)Cn1c(=O)[nH]c2ccccc21 (stereo unspecified)
174 | CCCCCCCCCCCCCCCCNc1ccc(O)c2c1C(=O)c1c(N)ccc(N)c1C2=O
80 | CC(C)(C)[S@](=O)N1CCC[C@@H]1c1ccc(Cl)cc1
173 to 175 | O=C1CC(CO)C(c2ccc(N3CCOCC3)c(Cl)c2)=NN1 (stereo unspecified)
227 to 229 | Cc1cccc(C)c1NC(=O)NC1(c2ccccc2)CCCC1
90 to 93 | CCN(CC)C(=S)SCCNC(=O)CCNC(=O)OCc1ccccc1
100 to 101 | CC(C)(C)OC(=O)c1ccc(N)cc1F
139 to 140 | COc1ccc2c(c1OC)CCC=C2C#N
107 to 109 | OC(CNc1ccc(Cl)cc1Cl)Cn1ccnc1 (stereo unspecified)
171 to 174 | CC1(C)CC(=O)c2c(-c3ccccn3)cn(-c3ccccn3)c2C1
72.5 to 74.5 | O=[N+]([O-])c1ccc(S(=O)CCCCl)cc1 (stereo unspecified)
147 to 148 | CC(C)(C)S(=O)(=O)CC(Cc1ccccc1)C(=O)O (stereo unspecified)
188 to 190 | O=C(O)c1cc(OCc2ccccc2)c(-c2ccccc2)c([N+](=O)[O-])c1
211 to 213 | COc1cc(-c2nc(N3CCN(C(C)=O)CC3)c3c(C)c(C#N)sc3n2)cc(OC)c1OC

melting point [°C] | Compound
170 to 171 | COC(=O)C[C@H]1S[C@H](c2cccc(OC)c2OC)c2cc(Cl)ccc2N(CC(C)(C)C)C1=O
> 300 | O=C(O)c1ccc(-c2cc3ccccc3[nH]c2=S)cc1
169 to 171 | C1=CNc2c(ccc3ncccc23)C=N1
238 to 242 | CCOC(=O)c1c[nH]c2c(C)csc2c1=O
275 to 277 | COc1cc(OC)c2c(=O)[nH]c(-c3ccc(OC4CCN(C(C)=O)CC4)cc3)nc2c1
128 | Cn1cncc1C(O)(c1ccc(Cl)cc1)c1ccc2c(c1)c(CCc1ccc(Cl)s1)cc(=O)n2C (stereo unspecified)
124 | COC(=O)c1scc(C)c1NC(=O)CC12CC3CC(CC(C3)C1)C2
114 to 115 | CCOC(=O)c1cc(=O)c2ccccc2n1C
235 to 237 | CCNc1nc(C)c(-c2ccnc(Nc3cc(OC)cc(OC)c3)n2)s1
178 to 180 | O=C(O)CCNC(=O)c1ccc(N(Cc2ccc(C3=CCCCC3)cc2)C(=O)C=Cc2cccc(OC(F)(F)F)c2)cc1
238 to 240 | N=C(N)c1ccc(C(=O)N[C@@H](CO)Cc2ccc(OCC(=O)O)cc2)cc1
196 to 197 | O=Cc1cn(-c2ccccc2)nc1O
58 to 59 | CC(CO)c1ccc(-c2ccc(F)cc2F)c(F)c1 (stereo unspecified)
60 to 64 | CCCCCCCCCCOc1ccc(-c2nc(-c3c(Cl)cccc3Cl)nn2C)cc1
158 to 160 | Nc1nc2c(s1)CN(C(=S)NC(=O)c1ccccc1)CC2
193 to 195 | CNC(=O)c1ccccc1N=C(NC(=O)c1ccccc1)SC
144 to 145 | COc1ccc(C(=C/C=C/C(=O)NC(C)(C)CCCc2cccnc2)c2ccc(OC)cc2)cc1
103 to 120 | O=C(c1ccc2ccccc2c1)C(O)O
179 | COc1ccc(CCN(C)CCc2ccc(NC(=O)c3cccc4c(=O)c5cccc(OC)c5[nH]c34)cc2)cc1OC
